Laboratory results taken from the NIST ThermoML archive (doi:10.1021/je060271a).
Several values for one entry are separate records, joined by “and”; a condition that tells them apart may be missing. Equal entries are not always repeated.

Settings: 323.15 K, Liquid, Vibrating tube method

CCCCCCCC(=O)OCC(COC(=O)CCCCCCC)(COC(=O)CCCCCCC)COC(=O)CCCCCCC [pentaerythritol tetraoctanoate]
Settings | mass density
3786.1 kPa | 943.3 kg/m3
3800.8 kPa | 943.3 kg/m3
3818.1 kPa | 943.3 kg/m3
3832.3 kPa | 943.3 kg/m3
3846.9 kPa | 943.3 kg/m3
3894.9 kPa | 943.3 kg/m3
4078 kPa | 943.4 kg/m3
4095.3 kPa | 943.5 kg/m3
4116.3 kPa | 943.5 kg/m3
4133.4 kPa | 943.5 kg/m3
4151.5 kPa | 943.4 kg/m3
4169.5 kPa | 943.5 kg/m3
4190.6 kPa | 943.5 kg/m3
4208.3 kPa | 943.5 kg/m3
4239.4 kPa | 943.7 kg/m3
4240.5 kPa | 943.6 kg/m3
4244.3 kPa | 943.6 kg/m3
4247.1 kPa | 943.6 kg/m3
4247.4 kPa | 943.5 kg/m3
4247.6 kPa | 943.5 kg/m3
4248.6 kPa | 943.5 kg/m3
4249.3 kPa | 943.5 kg/m3 and 943.6 kg/m3
4250.7 kPa | 943.7 kg/m3
4258.1 kPa | 943.6 kg/m3
4267.5 kPa | 943.7 kg/m3
4277.9 kPa | 943.5 kg/m3
4287.4 kPa | 943.5 kg/m3
4298 kPa | 943.6 kg/m3
4315.8 kPa | 943.6 kg/m3
4334.7 kPa | 943.5 kg/m3
4353.7 kPa | 943.6 kg/m3
4376.6 kPa | 943.5 kg/m3
4396.7 kPa | 943.6 kg/m3
4416.4 kPa | 943.8 kg/m3
4436.5 kPa | 943.7 kg/m3
4522.7 kPa | 943.7 kg/m3
4548.7 kPa | 943.7 kg/m3
4571 kPa | 943.8 kg/m3
4604.4 kPa | 943.8 kg/m3
4618.8 kPa | 943.7 kg/m3
4647.7 kPa | 943.8 kg/m3
4665.2 kPa | 943.8 kg/m3
4679.7 kPa | 943.8 kg/m3
4709.7 kPa | 943.8 kg/m3
4727.3 kPa | 943.9 kg/m3
4891.1 kPa | 943.9 kg/m3
4907.3 kPa | 944 kg/m3
4923.3 kPa | 944 kg/m3
4942.8 kPa | 944.1 kg/m3
4959.8 kPa | 943.9 kg/m3
4976.6 kPa | 944 kg/m3
4996.1 kPa | 944 kg/m3
5013.6 kPa | 944 kg/m3
5030.7 kPa | 944 kg/m3
5047.7 kPa | 944.1 kg/m3
5068.6 kPa | 944.1 kg/m3
5086.9 kPa | 944.1 kg/m3
5104.6 kPa | 944.2 kg/m3
5218.8 kPa | 944.1 kg/m3
5237.3 kPa | 944.2 kg/m3
5255.9 kPa | 944.1 kg/m3
5277.4 kPa | 944 kg/m3
5296.3 kPa | 944.3 kg/m3
5316.3 kPa | 944.2 kg/m3
5355 kPa | 944.3 kg/m3
5378.7 kPa | 944.3 kg/m3
5681.4 kPa | 944.5 kg/m3
5729.8 kPa | 944.6 kg/m3
5752.1 kPa | 944.5 kg/m3
5847.4 kPa | 944.5 kg/m3
5898.9 kPa | 944.7 kg/m3
5922.8 kPa | 944.6 kg/m3
5946.5 kPa | 944.7 kg/m3
5970.5 kPa | 944.6 kg/m3
5999.4 kPa | 944.7 kg/m3
6024.1 kPa | 944.7 kg/m3
6049 kPa | 944.6 kg/m3
6104.5 kPa | 944.9 kg/m3
6129.2 kPa | 944.8 kg/m3
6154.4 kPa | 944.8 kg/m3
6185.7 kPa | 944.9 kg/m3
6211.6 kPa | 944.7 kg/m3
6413.9 kPa | 945 kg/m3
6442.7 kPa | 945.1 kg/m3
6473 kPa | 945 kg/m3
6509.3 kPa | 944.9 kg/m3
6534.3 kPa | 945 kg/m3
6561.1 kPa | 945 kg/m3
6584.4 kPa | 945 kg/m3
6606.7 kPa | 945 kg/m3
6623 kPa | 945.2 kg/m3
6640.9 kPa | 945.1 kg/m3
6655.8 kPa | 945.2 kg/m3
6670.8 kPa | 945.1 kg/m3
6686 kPa | 945.1 kg/m3
6704.2 kPa | 945 kg/m3
6719.4 kPa | 945.2 kg/m3
6735.1 kPa | 945.2 kg/m3
6749.8 kPa | 945.1 kg/m3
6768.8 kPa | 945.2 kg/m3
6784.3 kPa | 945.2 kg/m3
6800.4 kPa | 945.2 kg/m3
6817 kPa | 945.2 kg/m3
6835.8 kPa | 945.3 kg/m3
6851.9 kPa | 945.3 kg/m3
6867.4 kPa | 945.1 kg/m3
6883.1 kPa | 945.3 kg/m3
6902.5 kPa | 945.3 kg/m3
6918.5 kPa | 945.3 kg/m3
6935.1 kPa | 945.2 kg/m3
6954.5 kPa | 945.3 kg/m3
6971.2 kPa | 945.4 kg/m3
6987.8 kPa | 945.3 kg/m3
7004.7 kPa | 945.4 kg/m3
7025.5 kPa | 945.3 kg/m3
7043.2 kPa | 945.5 kg/m3
7059.8 kPa | 945.4 kg/m3
7076.5 kPa | 945.4 kg/m3
7096.9 kPa | 945.4 kg/m3
7113.8 kPa | 945.4 kg/m3
7131.3 kPa | 945.5 kg/m3
7148.4 kPa | 945.5 kg/m3
7169.6 kPa | 945.5 kg/m3
7187.1 kPa | 945.5 kg/m3
7204 kPa | 945.6 kg/m3
7225.1 kPa | 945.5 kg/m3
7243.2 kPa | 945.4 kg/m3
7262.9 kPa | 945.5 kg/m3
7281.3 kPa | 945.5 kg/m3
7299.6 kPa | 945.5 kg/m3
7320.9 kPa | 945.6 kg/m3
7338.5 kPa | 945.7 kg/m3
7357.3 kPa | 945.6 kg/m3
7379.6 kPa | 945.5 kg/m3
7397.7 kPa | 945.7 kg/m3
7416.4 kPa | 945.6 kg/m3
7435.3 kPa | 945.6 kg/m3
7457.8 kPa | 945.7 kg/m3
7476.9 kPa | 945.7 kg/m3
7496.1 kPa | 945.6 kg/m3
7515.6 kPa | 945.7 kg/m3
7538.6 kPa | 945.7 kg/m3
7558.1 kPa | 945.7 kg/m3
7577.6 kPa | 945.6 kg/m3
7601.3 kPa | 945.7 kg/m3
7621.1 kPa | 945.8 kg/m3
7640.6 kPa | 945.7 kg/m3
7660.5 kPa | 945.8 kg/m3
